Data reported in patent US20230183234A1, “IAP ANTAGONIST COMPOUNDS AND INTERMEDIATES AND METHODS FOR SYNTHESIZING THE SAME” (Otsuka Pharmaceutical Co., Ltd., priority 2020, published 2023).

Assay: Storage stability: level of aldehyde impurity of formula (XXV), HPLC peak at RRT 1.3
Type: physicochemical
Conditions: stored at 2-8° C.
Description: Based on experimental data, there is a correlation between the palladium content in the final end-product and drug substance of formula (XXIII) and the oxidative degradation of an aldehyde impurity. […] The degradation is manifested as an aldehyde impurity peak of formula (XXV) appearing at a relative retention time (RRT) of 1.3.
This impurity peak is found to be no more than 0.2% a/a when stored at 2-8° C., but higher levels are observed at elevated temperatures. The experimental results are depicted in FIGS. 6-7 and Tables 1, 4 and 5 for drug substance lots and corresponding formulations outlined in Tables 1-3.
The stability data and effect of palladium content on aldehyde impurity represented by the area percent of RRT 1.3 at a storage condition of 25° C. and 60% RH is provided in Table 4 and FIG. 6.
The effect of temperature on stability and the level of aldehyde impurity represented by the area percent of RRT 1.3 is provided in Table 5 and FIG. 7.

Structure (SMILES): C[C@@H]1CN(CC(=O)N2CC(C)(C)c3nc(CO)c(Cc4ccc(F)cc4)cc32)[C@@H](CN2CCOC[C@H]2C)CN1.C[C@H](O)C(=O)O [formula (XXIII)]
- impurity peak level at RRT 1.3 (aldehyde impurity of formula (XXV)): no more than 0.2 % a/a
